Laboratory results as given in patent US20190125701A1 (priority 2016, published 2019).
Entries after “also recorded” stand apart in the source; their conditions may differ.

Key:
mCMV [1] = details: for antiviral activity after drug removal: 24 hrs pre-treatment, compounds removed before virus inoculation; for effect on mCMV infection: cells pre-treated with drug prior to mCMV inoculation; for CMV inhibition with delayed drug addition: compounds added 2 to 12 hours after virus inoculation; for number of infected cells: drug at low concentration (100 μM) present 0-48 hpi, NIH/3T3, MOI 0.1
mCMV [2] = assay: Viral binding and fusion experiments (4° C./37° C. shift); details: 100 μM, NIH/3T3, MOI 0.1, infectivity at 48 hpi
[3] = system: Vesicular Stomatitis Virus; type: cell-based, VSV
mCMV [4] = assay: Viral yield reduction assay after short drug exposure; details: 100 μM for 2 hrs at viral challenge, supernatants at 72 hpi
mCMV [5] = assay: Ethidium homodimer (EthD-1) cytotoxicity assay of mCMV-infected NIH/3T3 cells; details: NIH/3T3, 24 hrs pre-treatment, MOI 0.4, 72 hpi
Sindbis virus (SIN) = type: cell-based
mCMV [6] = assay: Virucidal activity assay on free virions; details: 100 μM with undiluted mCMV for 2 hours at 4° C. or 37° C., then diluted to 10 nM
CMV IE1/2 promoter = details: NIH/3T3, VPD 1 mM for 24 hours, plasmid transfection
Experimental: To investigate the effects on the immediate early phase of viral replication, NIH/3T3 cells exposed to VPD (1 mM) for 24 hours, were transfected with a CMV promoter (IE1/IE2)-driven reporter plasmid (pCMV-tdTomato) expressing the red fluorescent protein tdTomato.

mCMV [7] = assay: Plaque size assay; details: varying drug concentrations, measured 5 dpi
mCMV [8] = type: in vivo, mouse; details: for parameters of somatic development: body and tail length, eyelid opening, fur maturation; for CMV load in liver and lungs: treated PND 1 to 10, plaque assay at PND 12
[9] = cited from earlier work
hCMV [10] = assay: Quantification of hCMV-GFP infection in normal human dermal fibroblasts and U-373 glioblastoma cells; details: pre-treatment prior to hCMV-GFP inoculation
mCMV [11] = assay: Hindlimb clasping test; details: P28-P30
hCMV [12] = assay: hCMV infectivity assay in human fetal astrocytes; details: 100 μM, 1 h pre-treatment, MOI 0.1, 48 hpi
hCMV [13] = assay: hCMV attachment and internalization in human fetal astrocytes by qPCR; details: 100 μM
hCMV [14] = assay: hCMV virus yield reduction assay in human fetal astrocytes; type: cell-based, human CMV
Excerpt: In the virus yield reduction assay, after viral adsorption, cells were washed twice with PBS and replenished with fresh medium containing the compounds to be tested. At 72 hpi medium was collected and titered by plaque assay using HDF monolayers to assess the drug-mediated inhibition of virus replication in human fetal brain astrocytes.

mCMV [15] = assay: Exploratory activity in adapted small open field; type: in vivo, mouse; details: P30-40, 3-min session
mCMV [16] = assay: Challenging beam traversal test; type: in vivo, mouse; details: P28-P30
mCMV [17] = details: P2 to P14
mCMV [18] = assay: Vertical pole test; type: in vivo, mouse; details: P28-P30; 3 out of 20 infected untreated failed
Experimental: Briefly, mice were individually placed head-downward at the top of a vertical rough-surfaced pole (diameter, 8 mm; height, 55 cm) and allowed to descend in a round of habituation. Then, mice were placed head-upward at the top of the pole. The time required for the animal to descend to the floor was recorded as the locomotor activity time (TLA), with a maximum duration of 120 seconds. If a mouse fell, was unable to turn downward or was unable to climb down, a default locomotor activity time value was recorded as 120 seconds. Each mouse was given three trials with a 30 second-recovery period between trials.

[19] = system: Vesicular Stomatitis Virus; details: Ornaghi, et al., 2016; cited from earlier work
mCMV [20] = assay: Three-chamber test of sociability and social novelty; type: in vivo, mouse; details: 5 weeks of age
Excerpt: Sociability and preference for social novelty were investigated at 5 weeks of age in a three-compartment apparatus (Yang, et al., 2011, Curr. Protoc. Neurosci. Chapter 8:Unit 8.26). Initially, test and control animals were allowed to explore the apparatus freely for a 10-min period (habituation). For the social approach paradigm, an unfamiliar conspecific (same sex, similar age and weight) animal was placed into one of the side compartments and restrained by a small wire object (‘social cage’). The compartment on the other side contained an empty wire object (‘empty cage’). The test subject was then released into the center compartment and allowed to explore the three-compartment apparatus freely for 10 min. Behavior was videotaped and assessed for the time(s) that the test subject spent in the three compartments and in close proximity to the social and empty cages. For the social-novelty paradigm, another unfamiliar conspecific animal was placed in the previously empty wire object (‘novel cage’). The behavior of the test mouse was recorded for 10 min and assessed for the time spent exploring the known and novel conspecifics.

| Molecule | CMV binding to cells (mCMV [2]) | virus production (mCMV [4]) | antiviral activity after drug removal (mCMV [1]) | effect on mCMV infection (mCMV [1]) | CMV inhibition with delayed drug addition (mCMV [1]) | number of infected cells (mCMV [1]) | virucidal activity on virions (mCMV [6]) | CMV plaque size (mCMV [7]) | parameters of somatic development (mCMV [8]) | CMV load in liver and lungs (mCMV [8]) | effect on human CMV infection (hCMV [10]) | other results |
| --- | --- | --- | --- | --- | --- | --- | --- | --- | --- | --- | --- | --- |
| ivermectin |  |  |  |  |  |  |  |  |  |  |  | CMV infection compared to control (mCMV [1]; ivermectin used at 1 μM, CMV type not stated): 99%±9% |
| CCCC(CCC)C(N)=O [VPD, 2-propylpentanamide] | inhibit CMV binding to cells | significantly decreases virus production | loss of antiviral activity | robust dose-dependent inhibitory effect | no inhibition | 50% | No direct inactivation of virions | reduced | markedly improved | markedly decreased | inhibited human CMV infection | VSV infection compared to control [3]: 101%±5%; viral-mediated cell death / cell survival (mCMV [5]): increased cell survival; SIN infection compared to control (Sindbis virus (SIN)): 107%±3%; number of red (tdTomato) cells compared to control (CMV IE1/2 promoter): 96%±4%; fraction metabolized to VPA ([9]; humans): > 80% |
| CCCC(C(N)=O)C(C)CC (stereo not shown) [SPD, 3-methyl-2-propylpentanamide] |  |  |  |  |  |  |  | slightly more effective than either valpromide or valnoctamide; also recorded: reduced |  |  |  |  |
| CCC(C)C(C(N)=O)C(C)C (stereo not shown) [SID, 2-isopropyl-3-methylpentanamide] |  |  |  |  |  |  |  | reduced |  |  |  |  |
| CCC(C)C(CC)C(N)=O (stereo not shown) [VCD, 2-ethyl-3-methylpentanamide] | inhibit CMV binding to cells | significantly decreases virus production | loss of antiviral activity | inhibited | no inhibition | 50% | No direct inactivation of virions | reduced | markedly improved | markedly decreased | inhibited | hindlimb clasping response (mCMV [11]): completely reversed this altered behavior; hCMV infectivity (GFP-positive cells) (hCMV [12]): substantially decreased hCMV infectivity; decrease of virus bound to the cell surface versus control (hCMV [13]; 4° C.): 60%; CMV fusion/internalization (hCMV [13]; 37° C.): did not appear to block CMV fusion/internalization; reduction in viral titer (hCMV [14]; 100 μM VCD versus vehicle): approximately 100 fold; viral titer (hCMV [14]; 100 μM VCD, MOI 0.1, vehicle 4.92×10^5±5.84×10^4): 6.31×10^3±3.06×10^3 PFU/ml; rearing and nose-poking events (mCMV [15]): Normal levels of exploratory activity were restored; beam traversal time and number of slips (mCMV [16]): significantly improved the coordination and balance; conversion to corresponding free acid (valnoctic acid) ([9]; in vivo): little conversion; acquisition of neurological milestones in infected pups (mCMV [17]): timely acquisition of neurological milestones; mice failing the vertical pole test (mCMV [18]): no VCD-treated mice or uninfected controls failed; antiviral effect on vesicular stomatitis virus [19]: no antiviral effect; preference for social novelty (mCMV [20]): restored social novelty responses |
